Measured values reported in ChEMBL document CHEMBL1201862, “PubChem BioAssay data set” (2004).
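Following 48 hours of exposure in 96-well plates, responses at five concentrations were used to interpolate endpoints linearly. GI50 = concentration required for 50% inhibition of growth.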 Activity calls are given as the source filed them. Cut-off read from the data, not from the text of the source: active = GI50 up to about 1.1 µM and inactive = higher.

Columns and labels:
Test in all cases: growth of human tumour cells (NCI), 48 h
[1] = test system: A498
[2] = test system: ACHN
[3] = test system: CAKI-1
[4] = test system: EKVX
[5] = test system: HL-60
[6] = test system: HOP-92
[7] = test system: KM12
[8] = test system: NCI-H522
[9] = test system: RPMI-8226
[10] = test system: SF-539
[11] = test system: SK-MEL-28
[12] = test system: SW-620
[13] = test system: TK-10
[14] = test system: UACC-257
[15] = test system: UO-31
[16] = test system: HCT-116
[17] = test system: OVCAR-4
[18] = test system: MDA-MB-435
[19] = test system: NCI/ADR-RES

| SMILES | GI50 [1] | GI50 [2] | GI50 [3] | GI50 [4] | GI50 [5] | GI50 [6] | GI50 [7] | GI50 [8] | GI50 [9] | GI50 [10] | GI50 [11] | GI50 [12] | GI50 [13] | GI50 [14] | GI50 [15] | GI50 [16] | GI50 [17] | GI50 [18] | GI50 [19] |
| --- | --- | --- | --- | --- | --- | --- | --- | --- | --- | --- | --- | --- | --- | --- | --- | --- | --- | --- | --- |
| Cc1ccc(/C=C/C(=O)c2sc(-n3nc(-c4ccccc4)cc3-c3ccccc3)nc2C)cc1 | > 100 µM (inactive) | 65.8 µM (inactive) | 12.4 µM (inactive) | 34.8 µM (inactive) | 36.4 µM (inactive) | > 100 µM (inactive) | > 100 µM (inactive) | 87.5 µM (inactive) | > 100 µM (inactive) | > 100 µM (inactive) | > 100 µM (inactive) | > 100 µM (inactive) | > 100 µM (inactive) | > 100 µM (inactive) | > 100 µM (inactive) | – | – | – | – |
| O=C1C(=O)N(c2ccc(Cl)cc2Cl)C(=O)C(=O)C1c1nc2ccccc2s1 | > 100 µM (inactive) | > 100 µM (inactive) | 64.1 µM (inactive) | > 79.8 µM (inactive) | 23.7 µM (inactive) | 80.4 µM (inactive) | > 100 µM (inactive) | 24.5 µM (inactive) | 48 µM (inactive) | > 100 µM (inactive) | > 87.9 µM (inactive) | > 78.3 µM (inactive) | > 100 µM (inactive) | > 100 µM (inactive) | > 77.4 µM (inactive) | > 71.6 µM (inactive) | > 78.5 µM (inactive) | – | – |
| CN(C)C(=O)/N=c1\ss/c(=N\C(=S)N(C)C)n1-c1ccccc1 | 56.8 µM (inactive) | 23 µM (inactive) | > 100 µM (inactive) | > 63.5 µM (inactive) | 8.34 µM (inactive) | > 51.4 µM (inactive) | 57.5 µM (inactive) | < 0.01 µM (active) | 17 µM (inactive) | 35.4 µM (inactive) | 18.1 µM (inactive) | 28.3 µM (inactive) | 31.4 µM (inactive) | 15.5 µM (inactive) | 33 µM (inactive) | 13.5 µM (inactive) | 16.8 µM (inactive) | – | – |
| O=C(OC(=C(c1ccccc1)c1ccccc1)N1CCCC1=S)C(c1ccccc1)c1ccccc1 | 8.63 µM (inactive) | 5.07 µM (inactive) | > 10 µM (inactive) | > 10 µM (inactive) | > 10 µM (inactive) | – | 4.5 µM (inactive) | – | 7.55 µM (inactive) | > 10 µM (inactive) | > 10 µM (inactive) | > 10 µM (inactive) | > 10 µM (inactive) | > 10 µM (inactive) | > 10 µM (inactive) | 4.12 µM (inactive) | 8.83 µM (inactive) | > 10 µM (inactive) | 5.87 µM (inactive) |
| N#Cc1c(C(N)=O)ncn1Cc1ccccc1 | > 100 µM (inactive) | > 100 µM (inactive) | > 100 µM (inactive) | > 100 µM (inactive) | > 100 µM (inactive) | > 100 µM (inactive) | > 100 µM (inactive) | > 100 µM (inactive) | > 100 µM (inactive) | > 100 µM (inactive) | – | > 100 µM (inactive) | > 100 µM (inactive) | > 100 µM (inactive) | > 100 µM (inactive) | > 100 µM (inactive) | > 100 µM (inactive) | – | – |
| CCOC(=O)CCC(NC(=O)c1ccc(/N=C/c2nc3ccccc3nc2-c2ccccc2)cc1)C(=O)OCC (stereo unspecified) | > 100 µM (inactive) | > 100 µM (inactive) | > 100 µM (inactive) | > 100 µM (inactive) | > 100 µM (inactive) | > 100 µM (inactive) | > 100 µM (inactive) | > 100 µM (inactive) | > 100 µM (inactive) | > 100 µM (inactive) | > 100 µM (inactive) | > 100 µM (inactive) | > 100 µM (inactive) | > 100 µM (inactive) | > 100 µM (inactive) | > 100 µM (inactive) | > 100 µM (inactive) | – | – |
| CC(C)N(C(=O)C12C3C4C5C3C1(C#N)C5C42)C(C)C (stereo unspecified) | > 100 µM (inactive) | > 100 µM (inactive) | > 100 µM (inactive) | > 100 µM (inactive) | > 100 µM (inactive) | > 100 µM (inactive) | > 100 µM (inactive) | > 100 µM (inactive) | > 100 µM (inactive) | > 100 µM (inactive) | > 100 µM (inactive) | 11.6 µM (inactive) | > 100 µM (inactive) | > 100 µM (inactive) | > 100 µM (inactive) | > 100 µM (inactive) | > 100 µM (inactive) | – | – |
| COc1cc(/C=C2/C(=O)N(C(=O)OC(C)C)C(Cc3cc(OC)c(OC)c(C)c3OC)C(=O)N2Cc2ccccc2)c(OC)c(C)c1OC (stereo unspecified) | 73.1 µM (inactive) | > 100 µM (inactive) | > 100 µM (inactive) | > 100 µM (inactive) | 3.52 µM (inactive) | 4 µM (inactive) | 54.2 µM (inactive) | 3.74 µM (inactive) | 6.58 µM (inactive) | > 100 µM (inactive) | > 100 µM (inactive) | 14.8 µM (inactive) | 35.6 µM (inactive) | 7.94 µM (inactive) | 9.06 µM (inactive) | 27.5 µM (inactive) | 20.9 µM (inactive) | – | – |
| C[n+]1c2ccccc2c(/C=N\NS(=O)(=O)c2ccc(Cl)cc2)c2ccccc21 | 35.6 µM (inactive) | 68.2 µM (inactive) | 29.7 µM (inactive) | > 100 µM (inactive) | 30.1 µM (inactive) | 48.8 µM (inactive) | 44.2 µM (inactive) | 46.8 µM (inactive) | 42.6 µM (inactive) | 87.5 µM (inactive) | 94.8 µM (inactive) | 39.5 µM (inactive) | 74 µM (inactive) | > 100 µM (inactive) | 27.3 µM (inactive) | 33.7 µM (inactive) | > 100 µM (inactive) | – | – |
| O=c1c([Se]c2coc3ccccc3c2=O)coc2ccccc12 | 19.1 µM (inactive) | 18.2 µM (inactive) | 20 µM (inactive) | 18.7 µM (inactive) | 23 µM (inactive) | 17.6 µM (inactive) | 11.3 µM (inactive) | 18.4 µM (inactive) | 22.8 µM (inactive) | 11.9 µM (inactive) | 17.1 µM (inactive) | 19 µM (inactive) | 17.7 µM (inactive) | 17.4 µM (inactive) | 13.5 µM (inactive) | 3.8 µM (inactive) | 16.9 µM (inactive) | – | – |
| CNn1c(C)n[nH]c1=O | > 100 µM (inactive) | > 100 µM (inactive) | > 100 µM (inactive) | > 100 µM (inactive) | > 100 µM (inactive) | > 100 µM (inactive) | > 100 µM (inactive) | > 100 µM (inactive) | > 100 µM (inactive) | > 100 µM (inactive) | > 100 µM (inactive) | > 100 µM (inactive) | > 100 µM (inactive) | > 100 µM (inactive) | > 100 µM (inactive) | > 100 µM (inactive) | > 100 µM (inactive) | > 100 µM (inactive) | > 100 µM (inactive) |
| COc1ccc2c(c1)CC1Cc3cc(OC)c(OC)cc3CN1CC2 (stereo unspecified) | 28.6 µM (inactive) | 21.5 µM (inactive) | 35.5 µM (inactive) | 32.8 µM (inactive) | 11.1 µM (inactive) | 11.6 µM (inactive) | 34.7 µM (inactive) | 34.6 µM (inactive) | 25.8 µM (inactive) | – | 42.8 µM (inactive) | 47.1 µM (inactive) | 22.2 µM (inactive) | 33.8 µM (inactive) | 15.3 µM (inactive) | 23.5 µM (inactive) | 38.5 µM (inactive) | 37.9 µM (inactive) | 31.8 µM (inactive) |
| C=C1CC(C#N)(C#N)[C@@H]2CC3CCCC3[C@H]12.C=C1CC(C#N)(C#N)[C@H]2C3CCCC3C[C@@H]12 (stereo partly specified) | 19.7 µM (inactive) | 24.8 µM (inactive) | – | 24.2 µM (inactive) | 20.5 µM (inactive) | 11.3 µM (inactive) | 20.1 µM (inactive) | – | – | 19.9 µM (inactive) | 21.2 µM (inactive) | 15 µM (inactive) | 35.1 µM (inactive) | – | 20.7 µM (inactive) | 4.99 µM (inactive) | – | 19.3 µM (inactive) | 23.9 µM (inactive) |
| CC1=C2C3OC(=O)C(C)C3C(O)C[C@@]2(C)C(=O)CC1 (stereo partly specified) | > 100 µM (inactive) | > 100 µM (inactive) | > 100 µM (inactive) | > 100 µM (inactive) | > 100 µM (inactive) | > 100 µM (inactive) | > 100 µM (inactive) | > 100 µM (inactive) | > 100 µM (inactive) | > 100 µM (inactive) | > 100 µM (inactive) | > 100 µM (inactive) | > 100 µM (inactive) | > 100 µM (inactive) | > 100 µM (inactive) | > 100 µM (inactive) | > 100 µM (inactive) | – | – |
| CCC(=O)OC1CCn2c1nc1c2C(=O)C(C)=C(NC(C)=O)C1=O (stereo unspecified) | 18.4 µM (inactive) | 3.59 µM (inactive) | 1.92 µM (inactive) | 2.03 µM (inactive) | 0.796 µM (active) | 1.69 µM (inactive) | 1.92 µM (inactive) | 1.54 µM (inactive) | 1.93 µM (inactive) | 1.75 µM (inactive) | 2.22 µM (inactive) | 1.49 µM (inactive) | 5.12 µM (inactive) | 1.69 µM (inactive) | 2.22 µM (inactive) | 1.67 µM (inactive) | 0.198 µM (active) | – | – |
| CCc1nc(N)nc(N)c1-c1ccc(Cl)c(Cl)c1 [ETOPRINE] | > 100 µM (inactive) | 2.86 µM (inactive) | 32 µM (inactive) | 20.9 µM (inactive) | > 100 µM (inactive) | 13.3 µM (inactive) | 8.51 µM (inactive) | 5.81 µM (inactive) | 9.71 µM (inactive) | 5.16 µM (inactive) | > 100 µM (inactive) | 5.32 µM (inactive) | 36.1 µM (inactive) | 8.38 µM (inactive) | 2.52 µM (inactive) | 0.574 µM (active) | > 100 µM (inactive) | 0.818 µM (active) | 1.47 µM (inactive) |
